How the values were obtained:
[1] = system: interferon production in human PBMC; test: Interferon production in human PBMC, read out on HEK-ISRE-luc reporter cells; format: cell-based; settings: lowest effective concentration, PBMC supernatant after overnight incubation transferred to HEK-ISRE-luc cells; for minimal effective concentration: Homo sapiens, PBMC, 24 h, read-out: PBMC HEK-ISRE-luc (LEC; μM); for PBMC HEK-ISRE-luc (LEC; μM): 24 hours
Description: Activation of human TLR7 results in robust production of interferon by plasmacytoid dendritic cells present in human blood. The potential of compounds to induce interferon was evaluated by determination of interferon in the conditioned media from peripheral blood mononuclear cells (PBMC). The presence of interferon in the samples was determined, using an interferon reporter cell line stably expressing an interferon-stimulated responsive elements (ISRE)-luc reporter construct. The ISRE element with sequence GAAACTGAAACT (SEQ ID: 1) is highly responsive to the STAT1-STAT2-IRF9 transcription factor, which becomes activated upon binding of IFN-I to the IFN receptor. Briefly, PBMCs were prepared from buffy coats of at least two donors using a standard Ficoll centrifugation protocol. Isolated PBMCs were resuspended in RPMI medium supplemented with 10% human AB serum and 2×10^5 cells/well were dispensed into 384-well plates containing compounds (70 μL total volume). After overnight incubation of the PBMCs with the compounds, 10 μL of supernatant was transferred to 384-well plates containing 5×10^3 HEK-ISRE-luc cells/well in 30 μL (plated the day before). Following 24 hours of incubation, activation of the ISRE elements was measured by assaying luciferase activity using 40 μL/well Steady Lite Plus substrate (Perkin Elmer) and measured with ViewLux ultraHTS microplate imager (Perkin Elmer). The stimulating activity of each compound on the HEK-ISRE-luc cells was reported as LEC. The LEC in turn indicates the degree of ISRE activation on transfer of a defined amount of PBMC culture medium. Recombinant interferon alfa-2a (Roferon-A) was used as a standard control compound.

human TLR7 = target: T1, human TLR7 (Homo sapiens, UniProt Q9NYK1); test: TLR7 cellular reporter assay (HEK293 TLR7-NFκB-luc); format: cell-based; settings: lowest effective concentration; HEK293 transiently transfected with TLR7 and NFκB-luc; 6 hours incubation
T1 construct: expressed in transfected cells; host or cells: HEK293
T1 sequence (Q9NYK1 27-1049): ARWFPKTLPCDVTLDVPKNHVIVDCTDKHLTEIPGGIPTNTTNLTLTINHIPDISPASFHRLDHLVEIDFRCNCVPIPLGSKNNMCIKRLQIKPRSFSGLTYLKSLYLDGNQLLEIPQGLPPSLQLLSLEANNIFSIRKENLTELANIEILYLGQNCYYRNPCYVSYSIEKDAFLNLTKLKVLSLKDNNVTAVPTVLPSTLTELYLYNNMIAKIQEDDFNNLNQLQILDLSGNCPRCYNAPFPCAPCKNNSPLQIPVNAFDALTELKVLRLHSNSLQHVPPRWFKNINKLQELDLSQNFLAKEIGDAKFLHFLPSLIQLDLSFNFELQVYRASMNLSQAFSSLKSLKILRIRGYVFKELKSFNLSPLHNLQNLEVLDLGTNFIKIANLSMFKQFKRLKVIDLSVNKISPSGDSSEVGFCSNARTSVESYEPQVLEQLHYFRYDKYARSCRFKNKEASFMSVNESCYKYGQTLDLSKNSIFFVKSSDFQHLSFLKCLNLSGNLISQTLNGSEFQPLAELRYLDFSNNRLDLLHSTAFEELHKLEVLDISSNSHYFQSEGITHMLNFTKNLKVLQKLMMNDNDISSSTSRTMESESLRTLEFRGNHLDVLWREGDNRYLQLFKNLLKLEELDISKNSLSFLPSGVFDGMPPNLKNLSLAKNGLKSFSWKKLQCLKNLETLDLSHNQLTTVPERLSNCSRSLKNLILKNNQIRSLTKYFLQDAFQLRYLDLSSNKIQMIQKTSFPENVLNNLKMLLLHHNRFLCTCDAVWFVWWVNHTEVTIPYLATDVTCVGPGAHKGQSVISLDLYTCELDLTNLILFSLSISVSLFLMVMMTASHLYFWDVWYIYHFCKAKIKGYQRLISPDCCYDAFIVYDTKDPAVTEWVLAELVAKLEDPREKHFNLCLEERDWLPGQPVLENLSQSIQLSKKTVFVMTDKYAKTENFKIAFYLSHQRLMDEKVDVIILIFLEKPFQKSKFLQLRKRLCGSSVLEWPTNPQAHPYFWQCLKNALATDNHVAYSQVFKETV
Description: The ability of compounds to activate human TLR7 and TLR8 was assessed in a cellular reporter assay using HEK293 cells transiently transfected with a TLR7 or TLR8 expression vector and NFκB-luc reporter construct. Briefly, HEK293 cells were grown in culture medium (DMEM supplemented with 10% FCS and 2 mM Glutamine). For transfection of cells in 10 cm dishes, cells were detached with Trypsin-EDTA, transfected with a mix of CMV-TLR7 or TLR8 plasmid (750 ng), NFκB-luc plasmid (375 ng) and a transfection reagent and incubated 48 hours at 37° C. in a humidified 5% CO2 atmosphere. Transfected cells were then detached with Trypsin-EDTA, washed in PBS and resuspended in medium to a density of 1.67×10^5 cells/mL. Thirty microliters of cells were then dispensed into each well in 384-well plates, where 10 μL of compound in 4% DMSO was already present. Following 6 hours incubation at 37° C., 5% CO2, the luciferase activity was determined by adding 15 μl of Steady Lite Plus substrate (Perkin Elmer) to each well and readout performed on a ViewLux ultraHTS microplate imager (Perkin Elmer). Dose response curves were generated from measurements performed in quadruplicates. Lowest effective concentrations (LEC) values, defined as the concentration that induces an effect which is at least two fold above the standard deviation of the assay, were determined for each compound.

Structure (SMILES)	minimal effective concentration [1]	HEK293 TLR7-NFκB-luc (LEC; μM) (human TLR7)	PBMC HEK-ISRE-luc (LEC; μM) [1]
Nc1nc2nc3c1nc(O)n3Cc1cc(ccn1)OCCCCCO2 [Compound 58]	0.086 µM	0.63 µM	
Nc1nc2nc3c1nc(O)n3CCc1cccc(c1)OC/C=C\CO2 [Compound 84]	0.51 µM	3.4 µM	
Nc1nc2nc3c1nc(O)n3CCc1cccc(c1)OC/C=C/CCO2 [Compound 86]	2.43 µM	7.91 µM	
Nc1nc2nc3c1nc(O)n3Cc1cccc(c1)C/C=C/CCCN2 [Compound 28]	0.26 µM	0.77 µM	
Nc1nc2nc3c1nc(O)n3Cc1cccc(c1)OCC/C=C/CO2 [Compound 21]	0.05 µM	0.3 µM	
Nc1nc2nc3c1nc(O)n3Cc1cccc(c1)OC/C=C\CCO2 [Compound 26]	0.093 µM	0.027 µM	
Nc1nc2nc3c1nc(O)n3Cc1cccc(c1)OCCCCCN2 [Compound 14]	0.51 µM	1.68 µM	
Nc1nc2nc3c1nc(O)n3Cc1ccccc1C/C=C\CCO2 [Compound 48]	2.04 µM	0.64 µM	
Nc1nc2nc3c1nc(O)n3Cc1cccc(n1)OC/C=C/CCCO2 [Compound 49]	0.16 µM	0.21 µM	
Nc1nc2nc3c1nc(O)n3Cc1cccc(c1)OCC(=O)NCCCO2 [Compound 80]	0.087 µM	0.041 µM	
Nc1nc2nc3c1nc(O)n3Cc1cc(ccn1)OC/C=C\CCO2 [Compound 37]	0.12 µM	0.8 µM	
Nc1nc2nc3c1nc(O)n3Cc1ccc(cc1)C/C=C/CCCCO2 [Compound 30]	0.56 µM	0.87 µM	
CC1CCOc2cccc(c2)Cn2c(O)nc3c(N)nc(nc32)OC1 (centres unmarked) [Compound 71]	0.04 µM	0.12 µM	
Nc1nc2nc3c1ncn3Cc1cccc(c1)C/C=C\CCO2 [Compound 52]	4.8 µM	7.96 µM	
Nc1nc2nc3c1nc(O)n3Cc1cc(ccn1)OC/C=C/CCO2 [Compound 51]	0.069 µM	0.74 µM	
Nc1nc2nc3c1ncn3Cc1ncccc1OC/C=C\CCO2 [Compound 79]	1.78 µM	2.34 µM	
Nc1nc2nc3c1ncn3Cc1cccc(c1)OC/C=C\CO2 [Compound 55]	15.3 µM	>25 µM	

Structure (SMILES)	minimal effective concentration [1]	HEK293 TLR7-NFκB-luc (LEC; μM) (human TLR7)	PBMC HEK-ISRE-luc (LEC; μM) [1]
Nc1nc2nc3c1nc(O)n3Cc1cccc(c1)OCCCCCCO2 [Compound 43]	0.034 µM	0.11 µM	
COc1c2cccc1OC/C=C/COc1nc(N)c3nc(O)n(c3n1)C2 [Compound 61]	4.98 µM	4.7 µM	
Nc1nc2nc3c1nc(O)n3CCc1cccc(c1)OC/C=C/CO2 [Compound 32]	0.12 µM	0.92 µM	
Nc1nc2nc3c1nc(O)n3Cc1cccc(c1)C/C=C/CCO2 [Compound 15]	0.016 µM	0.12 µM	
COc1ccc2cc1OC/C=C\COc1nc(N)c3nc(O)n(c3n1)C2 [Compound 60]		0.088 µM	0.033 µM
COc1ccc2cc1Cn1c(O)nc3c(N)nc(nc31)OCCCCC2 [Compound 69]	0.039 µM	0.2 µM	
Nc1nc2nc3c1nc(O)n3Cc1cccc(c1)CCCCCC(CO)N2 (centres unmarked) [Compound 10]	0.53 µM	5.26 µM	
Nc1nc2nc3c1nc(O)n3CCc1cccc(c1)CCCCCO2 [Compound 83]	2.66 µM	>25 µM	
Nc1nc2nc3c1nc(O)n3Cc1ccccc1OC/C=C\CO2 [Compound 77]	0.1 µM	0.53 µM	
Nc1nc2nc3c1nc(O)n3Cc1cccc(c1)OCCOCCO2 [Compound 12]	0.043 µM	0.39 µM	
Nc1nc2nc3c1nc(O)n3Cc1cccc(c1)C/C=C/CCN2 [Compound 29]	0.15 µM	0.81 µM	
Nc1nc2nc3c1nc(O)n3Cc1cccc(c1)OCCCCCC(CO)N2 (centres unmarked) [Compound 19]	0.14 µM	2.24 µM	
COc1ccc2cc1Cn1c(O)nc3c(N)nc(nc31)OCC/C=C\C2 [Compound 72]	0.0029 µM	0.018 µM	
Nc1nc2nc3c1nc(O)n3Cc1ccccc1OCCCCO2 [Compound 76]	0.064 µM	0.12 µM	
Nc1nc2nc3c1nc(O)n3Cc1cccc(c1)C/C=C\CCO2 [Compound 1]		0.154 µM	0.081 µM
Nc1nc2nc3c1nc(O)n3Cc1cccc(c1)CCCCCCn1ccnc1-2 [Compound 4]	0.64 µM	3.27 µM	
Nc1nc2nc3c1nc(O)n3Cc1cccc(c1)OC/C=C/CCCO2 [Compound 33]	0.11 µM	0.17 µM	

Source: patent publication US10822349B2, “Macrocyclic purines for the treatment of viral infections” (JANSSEN SCIENCES IRELAND UNLIMITED COMPANY, priority 2012, dated 2020)
